Laboratory results taken from ChEMBL document CHEMBL3885861, “Open TG-GATES”.

Species: Rattus norvegicus
Test: Open TG-GATES - Regimen: Daily Repeat
Format: toxicity, organism-based, Sprague-Dawley
Design: regimen Daily Repeat, gender Male, age 6 weeks
Details: in vivo, po, 200 mg/kg, route gavage, dose level High; for APTT / Bas / Eos / Fbg / Hb / Ht / Lym / MCH / MCHC / MCV / Mono / Neu / PT / Plat / RBC / Ret / WBC: tissue Blood; for KIDNEY_L / KIDNEY_R / KIDNEY_TOTAL: tissue Kidney; for LIVER: tissue Liver; for A/G / ALP / ALT / AST / BUN / CRE / Ca / Cl / DBIL / GLC / IP / K / LDH / Na / PL / RALB / TBIL / TC / TG / TP / gamma-GTP: tissue Plasma

CC(CN1c2ccccc2Sc2ccccc21)N(C)C (configuration not stated) [PROMETHAZINE]
TERMINAL_BW (72 h, time 3 day): 194.8 g
APTT (72 h, time 3 day): 23.9 s
Bas (72 h, time 3 day): 0%
Eos (72 h, time 3 day): 0.8%
Fbg (72 h, time 3 day): 333.2 mg/dL
Hb (72 h, time 3 day): 15 g/dL
Ht (72 h, time 3 day): 44.4%
Lym (72 h, time 3 day): 74.6%
MCH (72 h, time 3 day): 20.7 pg
MCHC (72 h, time 3 day): 33.7%
MCV (72 h, time 3 day): 61.6 fL
Mono (72 h, time 3 day): 2.8%
Neu (72 h, time 3 day): 21%
PT (72 h, time 3 day): 16.6 s
Plat (72 h, time 3 day): 130.8 x10_4/uL
RBC (72 h, time 3 day): 722.2 x10_4/ul
Ret (72 h, time 3 day): 4.2%
WBC (72 h, time 3 day): 73 x10_2/uL
KIDNEY_L (72 h, time 3 day): 0.9 g
KIDNEY_R (72 h, time 3 day): 0.9 g
KIDNEY_TOTAL (72 h, time 3 day): 1.8 g
LIVER (72 h, time 3 day): 10 g
A/G (72 h, time 3 day): 1.3
ALP (72 h, time 3 day): 1369.6 IU/L
ALT (72 h, time 3 day): 46.8 IU/L
AST (72 h, time 3 day): 69.2 IU/L
BUN (72 h, time 3 day): 14.8 mg/dL
CRE (72 h, time 3 day): 0.2 mg/dL
Ca (72 h, time 3 day): 10.2 mg/dL
Cl (72 h, time 3 day): 107.2 meq/L
DBIL (72 h, time 3 day): 0.08 mg/dL
GLC (72 h, time 3 day): 174.6 mg/dL
IP (72 h, time 3 day): 8.3 mg/dL
K (72 h, time 3 day): 4.3 meq/L
LDH (72 h, time 3 day): 204.6 IU/L
Na (72 h, time 3 day): 142.4 meq/L
PL (72 h, time 3 day): 159.4 mg/dL
RALB (72 h, time 3 day): 3.2 g/dL
TBIL (72 h, time 3 day): 0.024 mg/dL
TC (72 h, time 3 day): 98.6 mg/dL
TG (72 h, time 3 day): 75.6 mg/dL
TP (72 h, time 3 day): 5.8 g/dL
gamma-GTP (72 h, time 3 day): 1.4 IU/L
TERMINAL_BW ([…], time 7 day): 231 g
TERMINAL_BW ([…], time 14 day): 258.5 g
TERMINAL_BW ([…], time 28 day): 339.7 g
APTT ([…], time 7 day): 23.3 s
Bas ([…], time 7 day): 0%
Eos ([…], time 7 day): 1%
Fbg ([…], time 7 day): 306.2 mg/dL
Hb ([…], time 7 day): 14.1 g/dL
Ht ([…], time 7 day): 42.2%
Lym ([…], time 7 day): 76.4%
MCH ([…], time 7 day): 19.7 pg
MCHC ([…], time 7 day): 33.4%
MCV ([…], time 7 day): 59.1 fL
Mono ([…], time 7 day): 3.2%
Neu ([…], time 7 day): 18.6%
PT ([…], time 7 day): 15.9 s
Plat ([…], time 7 day): 115.2 x10_4/uL
RBC ([…], time 7 day): 714.2 x10_4/ul
Ret ([…], time 7 day): 3.9%
WBC ([…], time 7 day): 129.8 x10_2/uL
APTT ([…], time 14 day): 22.6 s
Bas ([…], time 14 day): 0%
Eos ([…], time 14 day): 1%
Fbg ([…], time 14 day): 369.4 mg/dL
Hb ([…], time 14 day): 15 g/dL
Ht ([…], time 14 day): 43.8%
Lym ([…], time 14 day): 70.4%
MCH ([…], time 14 day): 19.7 pg
MCHC ([…], time 14 day): 34.2%
MCV ([…], time 14 day): 57.4 fL
Mono ([…], time 14 day): 3.2%
Neu ([…], time 14 day): 24.6%
PT ([…], time 14 day): 16.1 s
Plat ([…], time 14 day): 120.6 x10_4/uL
RBC ([…], time 14 day): 763.2 x10_4/ul
Ret ([…], time 14 day): 4%
WBC ([…], time 14 day): 105 x10_2/uL
APTT ([…], time 28 day): 23.6 s
Bas ([…], time 28 day): 0%
Eos ([…], time 28 day): 1%
Fbg ([…], time 28 day): 316.4 mg/dL
Hb ([…], time 28 day): 15.3 g/dL
Ht ([…], time 28 day): 43.5%
Lym ([…], time 28 day): 71.6%
MCH ([…], time 28 day): 19.3 pg
MCHC ([…], time 28 day): 35.1%
MCV ([…], time 28 day): 55.1 fL
Mono ([…], time 28 day): 3%
Neu ([…], time 28 day): 23.4%
PT ([…], time 28 day): 16.4 s
Plat ([…], time 28 day): 108 x10_4/uL
RBC ([…], time 28 day): 791.6 x10_4/ul
Ret ([…], time 28 day): 3.3%
WBC ([…], time 28 day): 135.4 x10_2/uL
KIDNEY_L ([…], time 7 day): 1 g
KIDNEY_R ([…], time 7 day): 1.1 g
KIDNEY_TOTAL ([…], time 7 day): 2.1 g
KIDNEY_L ([…], time 14 day): 1.1 g
KIDNEY_R ([…], time 14 day): 1.1 g
KIDNEY_TOTAL ([…], time 14 day): 2.2 g
KIDNEY_L ([…], time 28 day): 1.3 g
KIDNEY_R ([…], time 28 day): 1.3 g
KIDNEY_TOTAL ([…], time 28 day): 2.6 g
LIVER ([…], time 7 day): 14.7 g
LIVER ([…], time 14 day): 15.1 g
LIVER ([…], time 28 day): 21.1 g
A/G ([…], time 7 day): 1.1
ALP ([…], time 7 day): 1435.2 IU/L
ALT ([…], time 7 day): 56.4 IU/L
AST ([…], time 7 day): 75.4 IU/L
BUN ([…], time 7 day): 19.6 mg/dL
CRE ([…], time 7 day): 0.2 mg/dL
Ca ([…], time 7 day): 10.9 mg/dL
Cl ([…], time 7 day): 104.8 meq/L
DBIL ([…], time 7 day): 0.004 mg/dL
GLC ([…], time 7 day): 179.4 mg/dL
IP ([…], time 7 day): 7.8 mg/dL
K ([…], time 7 day): 4.5 meq/L
LDH ([…], time 7 day): 167.8 IU/L
Na ([…], time 7 day): 142 meq/L
PL ([…], time 7 day): 170.6 mg/dL
RALB ([…], time 7 day): 3 g/dL
TBIL ([…], time 7 day): 0.008 mg/dL
TC ([…], time 7 day): 84.8 mg/dL
TG ([…], time 7 day): 127 mg/dL
TP ([…], time 7 day): 5.7 g/dL
gamma-GTP ([…], time 7 day): 2.8 IU/L
A/G ([…], time 14 day): 1
ALP ([…], time 14 day): 1417 IU/L
ALT ([…], time 14 day): 53.6 IU/L
AST ([…], time 14 day): 73.8 IU/L
BUN ([…], time 14 day): 20.6 mg/dL
CRE ([…], time 14 day): 0.2 mg/dL
Ca ([…], time 14 day): 11 mg/dL
Cl ([…], time 14 day): 103.2 meq/L
DBIL ([…], time 14 day): 0.014 mg/dL
GLC ([…], time 14 day): 184.6 mg/dL
IP ([…], time 14 day): 8 mg/dL
K ([…], time 14 day): 4.2 meq/L
LDH ([…], time 14 day): 249 IU/L
Na ([…], time 14 day): 143.4 meq/L
PL ([…], time 14 day): 182.4 mg/dL
RALB ([…], time 14 day): 3.1 g/dL
TBIL ([…], time 14 day): 0.018 mg/dL
TC ([…], time 14 day): 99 mg/dL
TG ([…], time 14 day): 117.2 mg/dL
TP ([…], time 14 day): 6.1 g/dL
gamma-GTP ([…], time 14 day): 3.4 IU/L
A/G ([…], time 28 day): 1
ALP ([…], time 28 day): 1191.4 IU/L
ALT ([…], time 28 day): 54.6 IU/L
AST ([…], time 28 day): 66 IU/L
BUN ([…], time 28 day): 21.2 mg/dL
CRE ([…], time 28 day): 0.2 mg/dL
Ca ([…], time 28 day): 10.8 mg/dL
Cl ([…], time 28 day): 104.2 meq/L
DBIL ([…], time 28 day): 0.008 mg/dL
GLC ([…], time 28 day): 175.2 mg/dL
IP ([…], time 28 day): 6.8 mg/dL
K ([…], time 28 day): 4.1 meq/L
LDH ([…], time 28 day): 146 IU/L
Na ([…], time 28 day): 142.8 meq/L
PL ([…], time 28 day): 211.4 mg/dL
RALB ([…], time 28 day): 3.2 g/dL
TBIL ([…], time 28 day): 0.02 mg/dL
TC ([…], time 28 day): 116.8 mg/dL
TG ([…], time 28 day): 136.6 mg/dL
TP ([…], time 28 day): 6.3 g/dL
gamma-GTP ([…], time 28 day): 4.2 IU/L
